Reference: the kinase profiling compilation of Christmann-Franck et al. (2016)
“And” between values parts separate entries of the source, which are not always exact repeats. Equal entries are not always repeated.

What was measured:
Experiment in all cases: KINOMEscan competition binding
Settings in all cases: compound 10.0 µM
[1] = target: PLK4 (human) (UniProt O00444)
[2] = target: CDK5 (human) (UniProt Q00535)
[3] = target: NEK4 (human) (UniProt P51957)
[4] = target: BTK (human) (UniProt Q06187)
[5] = target: CDC42BPA (human) (UniProt Q5VT25)
[6] = target: MARK4 (human) (UniProt Q96L34)
[7] = target: RIPK4 (human) (UniProt P57078)
[8] = target: LIMK1 (human) (UniProt P53667)
[9] = target: TTK (human) (UniProt P33981)
[10] = target: NEK11 (human) (UniProt Q8NG66)
[11] = target: MAPK3 (human) (UniProt P27361)
[12] = tested on: RET (human), P07949 [M918T]
[13] = target: NIM1 (human) (UniProt Q8IY84)
[14] = target: LCK (human) (UniProt P06239)
[15] = target: ERN1 (human) (UniProt O75460)
[16] = target: PIM1 (human) (UniProt P11309)
[17] = tested on: FLT3 (human), P36888 [D835H]
[18] = target: CDK7 (human) (UniProt P50613)
[19] = target: ITK (human) (UniProt Q08881)
[20] = target: DDR1 (human) (UniProt Q08345)
[21] = target: MAP3K7 (human) (UniProt O43318)
[22] = target: CAMKK2 (human) (UniProt Q96RR4)
[23] = target: DYRK2 (human) (UniProt Q92630)
[24] = target: MAPK4 (human) (UniProt P31152)
[25] = target: TNK2 (human) (UniProt Q07912)
[26] = target: CDK2 (human) (UniProt P24941)
[27] = target: MAPK8 (human) (UniProt P45983)
[28] = target: AXL (human) (UniProt P30530)
[29] = target: MELK (human) (UniProt Q14680)
[30] = target: GRK4 (human) (UniProt P32298)
[31] = target: WEE1 (human) (UniProt P30291)
[32] = target: PRKG1 (human) (UniProt Q13976)
[33] = target: AKT3 (human) (UniProt Q9Y243)
[34] = target: EPHB4 (human) (UniProt P54760)
[35] = target: FLT3 (human) (UniProt P36888)
[36] = target: PIK3CB (human) (UniProt P42338)
[37] = target: IKBKE (human) (UniProt Q14164)
[38] = target: RPS6KA4 KD1 (human) (UniProt O75676)
[39] = target: EPHA1 (human) (UniProt P21709)
[40] = target: BRSK2 (human) (UniProt Q8IWQ3)
[41] = target: ZAP70 (human) (UniProt P43403)

Sequence of PIM1 (human) (P11309 whole entry, looked up): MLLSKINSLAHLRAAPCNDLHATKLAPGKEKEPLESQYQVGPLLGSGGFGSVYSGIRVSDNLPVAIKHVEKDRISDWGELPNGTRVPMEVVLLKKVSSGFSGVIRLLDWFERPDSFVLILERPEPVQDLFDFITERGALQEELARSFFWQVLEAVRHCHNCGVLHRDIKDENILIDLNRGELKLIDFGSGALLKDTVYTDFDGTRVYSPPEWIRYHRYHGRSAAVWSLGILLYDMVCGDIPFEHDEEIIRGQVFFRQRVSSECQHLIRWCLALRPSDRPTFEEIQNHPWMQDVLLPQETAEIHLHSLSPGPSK
Sequence of ERN1 (human) (O75460 whole entry, looked up): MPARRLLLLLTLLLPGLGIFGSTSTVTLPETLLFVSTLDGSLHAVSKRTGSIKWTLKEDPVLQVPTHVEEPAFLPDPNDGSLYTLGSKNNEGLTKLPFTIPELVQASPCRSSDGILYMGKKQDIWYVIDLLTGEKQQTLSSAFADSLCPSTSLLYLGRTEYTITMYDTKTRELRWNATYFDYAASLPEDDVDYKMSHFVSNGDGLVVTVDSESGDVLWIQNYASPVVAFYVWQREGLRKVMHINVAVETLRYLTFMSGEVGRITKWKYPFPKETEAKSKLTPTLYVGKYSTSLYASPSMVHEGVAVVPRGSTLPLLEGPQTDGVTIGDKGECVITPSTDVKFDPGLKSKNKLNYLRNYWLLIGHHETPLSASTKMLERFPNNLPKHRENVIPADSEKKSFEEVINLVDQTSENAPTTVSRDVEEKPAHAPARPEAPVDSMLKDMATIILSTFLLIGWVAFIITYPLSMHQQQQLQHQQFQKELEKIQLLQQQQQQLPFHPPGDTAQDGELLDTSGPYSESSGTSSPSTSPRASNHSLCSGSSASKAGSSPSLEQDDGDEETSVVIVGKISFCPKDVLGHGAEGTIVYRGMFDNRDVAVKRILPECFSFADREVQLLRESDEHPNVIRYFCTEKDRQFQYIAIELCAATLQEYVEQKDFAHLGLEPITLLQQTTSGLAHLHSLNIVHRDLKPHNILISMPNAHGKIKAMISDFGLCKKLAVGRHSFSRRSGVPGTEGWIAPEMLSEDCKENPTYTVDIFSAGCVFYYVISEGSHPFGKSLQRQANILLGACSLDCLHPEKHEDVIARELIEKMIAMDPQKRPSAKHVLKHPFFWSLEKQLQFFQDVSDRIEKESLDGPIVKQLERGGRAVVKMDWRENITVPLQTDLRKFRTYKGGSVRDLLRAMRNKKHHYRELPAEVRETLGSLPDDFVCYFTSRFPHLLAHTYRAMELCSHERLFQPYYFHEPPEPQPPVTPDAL
Sequence of GRK4 (human) (P32298 whole entry, looked up): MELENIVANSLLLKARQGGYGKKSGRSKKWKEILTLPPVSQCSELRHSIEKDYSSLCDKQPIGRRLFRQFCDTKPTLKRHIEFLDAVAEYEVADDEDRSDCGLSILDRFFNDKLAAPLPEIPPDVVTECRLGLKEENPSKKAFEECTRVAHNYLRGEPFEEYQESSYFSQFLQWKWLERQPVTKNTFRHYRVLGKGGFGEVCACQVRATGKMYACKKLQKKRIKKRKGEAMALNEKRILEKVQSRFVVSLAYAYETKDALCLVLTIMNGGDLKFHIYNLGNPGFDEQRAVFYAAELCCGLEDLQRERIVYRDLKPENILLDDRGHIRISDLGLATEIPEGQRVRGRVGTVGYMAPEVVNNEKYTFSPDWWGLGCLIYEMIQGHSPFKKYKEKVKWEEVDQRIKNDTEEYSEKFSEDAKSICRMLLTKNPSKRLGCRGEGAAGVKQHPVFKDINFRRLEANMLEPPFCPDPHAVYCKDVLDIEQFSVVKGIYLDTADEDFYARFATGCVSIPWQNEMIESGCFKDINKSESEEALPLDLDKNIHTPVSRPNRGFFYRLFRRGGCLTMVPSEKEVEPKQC
Sequence of DDR1 (human) (Q08345 whole entry, looked up): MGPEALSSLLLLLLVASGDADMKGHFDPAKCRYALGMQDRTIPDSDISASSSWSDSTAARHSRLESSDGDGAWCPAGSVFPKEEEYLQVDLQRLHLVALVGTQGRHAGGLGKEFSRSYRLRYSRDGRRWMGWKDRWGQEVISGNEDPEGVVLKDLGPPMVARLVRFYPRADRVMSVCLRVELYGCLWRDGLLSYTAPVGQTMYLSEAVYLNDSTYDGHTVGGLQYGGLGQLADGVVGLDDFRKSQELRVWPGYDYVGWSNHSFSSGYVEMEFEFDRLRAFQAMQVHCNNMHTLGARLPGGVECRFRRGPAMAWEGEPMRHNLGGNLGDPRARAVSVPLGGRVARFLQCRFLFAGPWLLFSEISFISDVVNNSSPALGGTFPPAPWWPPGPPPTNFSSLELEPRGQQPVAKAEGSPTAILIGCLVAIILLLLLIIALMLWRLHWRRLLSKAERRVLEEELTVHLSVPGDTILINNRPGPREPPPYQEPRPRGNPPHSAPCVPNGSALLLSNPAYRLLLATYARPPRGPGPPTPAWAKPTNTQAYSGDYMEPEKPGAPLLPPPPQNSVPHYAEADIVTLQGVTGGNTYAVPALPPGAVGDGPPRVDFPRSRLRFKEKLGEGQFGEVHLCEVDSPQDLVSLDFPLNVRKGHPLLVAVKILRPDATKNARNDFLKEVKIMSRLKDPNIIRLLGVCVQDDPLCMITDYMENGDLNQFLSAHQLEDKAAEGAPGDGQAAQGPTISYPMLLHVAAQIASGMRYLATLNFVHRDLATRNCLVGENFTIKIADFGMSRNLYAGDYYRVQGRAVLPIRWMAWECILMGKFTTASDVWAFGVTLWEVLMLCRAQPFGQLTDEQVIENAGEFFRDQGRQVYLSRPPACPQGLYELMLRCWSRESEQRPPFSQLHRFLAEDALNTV
Sequence of NEK11 (human) (Q8NG66 whole entry, looked up): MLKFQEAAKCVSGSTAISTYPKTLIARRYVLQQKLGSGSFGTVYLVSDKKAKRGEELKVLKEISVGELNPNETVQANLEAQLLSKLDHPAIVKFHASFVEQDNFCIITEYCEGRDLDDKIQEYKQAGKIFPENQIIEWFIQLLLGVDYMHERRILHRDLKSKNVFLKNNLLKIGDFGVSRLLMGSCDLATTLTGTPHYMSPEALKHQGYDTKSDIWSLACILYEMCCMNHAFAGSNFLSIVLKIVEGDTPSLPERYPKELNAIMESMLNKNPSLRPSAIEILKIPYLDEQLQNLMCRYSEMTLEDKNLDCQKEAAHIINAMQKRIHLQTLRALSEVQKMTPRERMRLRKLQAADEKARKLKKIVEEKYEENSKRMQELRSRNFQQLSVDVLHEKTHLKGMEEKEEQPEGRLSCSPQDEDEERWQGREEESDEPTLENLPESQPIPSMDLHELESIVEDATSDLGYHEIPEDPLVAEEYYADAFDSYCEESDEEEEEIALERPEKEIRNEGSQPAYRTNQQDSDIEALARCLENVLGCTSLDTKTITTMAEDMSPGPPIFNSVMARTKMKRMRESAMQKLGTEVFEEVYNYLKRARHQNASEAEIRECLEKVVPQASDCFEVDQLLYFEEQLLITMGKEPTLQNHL
Sequence of AKT3 (human) (Q9Y243 whole entry, looked up): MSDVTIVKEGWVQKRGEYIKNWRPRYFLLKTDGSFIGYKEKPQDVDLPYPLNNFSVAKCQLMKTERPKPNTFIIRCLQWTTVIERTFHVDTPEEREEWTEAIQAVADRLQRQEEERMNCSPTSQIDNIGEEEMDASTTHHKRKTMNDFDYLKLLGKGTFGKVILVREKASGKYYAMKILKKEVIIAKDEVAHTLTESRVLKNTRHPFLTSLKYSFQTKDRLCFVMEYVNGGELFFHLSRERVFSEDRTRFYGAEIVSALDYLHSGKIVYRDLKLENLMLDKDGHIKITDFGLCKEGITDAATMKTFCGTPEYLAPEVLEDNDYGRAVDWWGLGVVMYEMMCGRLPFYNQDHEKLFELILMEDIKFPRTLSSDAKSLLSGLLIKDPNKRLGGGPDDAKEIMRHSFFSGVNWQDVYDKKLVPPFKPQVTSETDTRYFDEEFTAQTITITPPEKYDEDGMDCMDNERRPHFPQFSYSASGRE
Sequence of RET (human), P07949 [M918T] (P07949 whole entry M918T, looked up): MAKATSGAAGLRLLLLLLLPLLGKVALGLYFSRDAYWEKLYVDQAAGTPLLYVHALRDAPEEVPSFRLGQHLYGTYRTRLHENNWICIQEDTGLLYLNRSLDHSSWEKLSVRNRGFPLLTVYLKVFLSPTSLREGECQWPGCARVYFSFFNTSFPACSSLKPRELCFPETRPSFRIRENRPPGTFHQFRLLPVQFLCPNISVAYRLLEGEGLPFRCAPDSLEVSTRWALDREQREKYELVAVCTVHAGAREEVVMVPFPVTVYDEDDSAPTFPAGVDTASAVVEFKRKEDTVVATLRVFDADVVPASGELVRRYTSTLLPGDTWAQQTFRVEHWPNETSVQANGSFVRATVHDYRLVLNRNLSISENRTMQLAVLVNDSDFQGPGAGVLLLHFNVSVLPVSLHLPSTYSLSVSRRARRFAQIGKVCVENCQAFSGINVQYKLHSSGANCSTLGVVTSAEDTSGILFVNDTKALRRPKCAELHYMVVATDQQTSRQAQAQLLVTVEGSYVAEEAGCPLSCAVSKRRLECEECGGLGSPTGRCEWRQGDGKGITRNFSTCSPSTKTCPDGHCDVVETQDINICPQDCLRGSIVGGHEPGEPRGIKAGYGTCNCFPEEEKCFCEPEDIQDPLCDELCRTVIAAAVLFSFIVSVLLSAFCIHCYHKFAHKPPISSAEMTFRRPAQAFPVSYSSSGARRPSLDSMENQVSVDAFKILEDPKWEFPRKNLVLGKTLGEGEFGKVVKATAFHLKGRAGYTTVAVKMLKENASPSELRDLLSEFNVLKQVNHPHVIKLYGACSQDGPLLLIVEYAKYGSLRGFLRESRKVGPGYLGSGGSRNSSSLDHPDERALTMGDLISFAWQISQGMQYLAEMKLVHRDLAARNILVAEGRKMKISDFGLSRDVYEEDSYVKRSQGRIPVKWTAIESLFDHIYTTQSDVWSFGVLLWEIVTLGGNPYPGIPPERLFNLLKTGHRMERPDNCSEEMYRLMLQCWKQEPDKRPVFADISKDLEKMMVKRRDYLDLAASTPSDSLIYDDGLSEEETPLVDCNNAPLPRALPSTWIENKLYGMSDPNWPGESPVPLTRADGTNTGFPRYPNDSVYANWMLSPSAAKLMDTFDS

O=C1NC(=O)/C(=C/c2ccc3nccc(-c4ccncc4)c3c2)S1
kinase still bound, per cent of control [1]: 40% | kinase still bound, per cent of control [2]: 82% | kinase still bound, per cent of control [3]: 96% | kinase still bound, per cent of control [4]: 58% | kinase still bound, per cent of control [5]: 90% | kinase still bound, per cent of control [6]: 89% | kinase still bound, per cent of control [7]: 56% | kinase still bound, per cent of control [8]: 88% | kinase still bound, per cent of control [9]: 19% | kinase still bound, per cent of control [10]: 72% | kinase still bound, per cent of control [11]: 100% | kinase still bound, per cent of control [12]: 93% | kinase still bound, per cent of control [13]: 71% | kinase still bound, per cent of control [14]: 62% | kinase still bound, per cent of control [15]: 66% | kinase still bound, per cent of control [16]: 1% | kinase still bound, per cent of control [17]: 31% | kinase still bound, per cent of control [18]: 1.7% | kinase still bound, per cent of control [19]: 81% | kinase still bound, per cent of control [20]: 62% | kinase still bound, per cent of control [21]: 62% | kinase still bound, per cent of control [22]: 2% | kinase still bound, per cent of control [23]: 5.4% | kinase still bound, per cent of control [24]: 100% | kinase still bound, per cent of control [25]: 100% | kinase still bound, per cent of control [26]: 76% | kinase still bound, per cent of control [27]: 18% | kinase still bound, per cent of control [28]: 7.6% | kinase still bound, per cent of control [29]: 8.6% | kinase still bound, per cent of control [30]: 47% | kinase still bound, per cent of control [31]: 100% | kinase still bound, per cent of control [32]: 75% | kinase still bound, per cent of control [33]: 100% | kinase still bound, per cent of control [34]: 74% | kinase still bound, per cent of control [35]: 39% and 61% | kinase still bound, per cent of control [36]: 7.1% | kinase still bound, per cent of control [37]: 45% | kinase still bound, per cent of control [38]: 79% | kinase still bound, per cent of control [39]: 85% | kinase still bound, per cent of control [40]: 91% | kinase still bound, per cent of control [41]: 93%
